Experiment [1] has as its target T1, GST-tagged truncated LRRK2 (Homo sapiens, UniProt Q5S007).
T1 construct: GST-tagged truncated LRRK2 from Invitrogen (Cat # PV4874); GST; purchased Invitrogen PV4874
Nature of the experiment: LRRK2 Assay, Format 1 (Lantha Screen), WT. The format is biochemical. The note with it: for IC50: Format 1, wild-type LRRK2, geometric mean of 2-4 determinations unless footnoted (a: ≥5 determinations; b: single determination; c: determined on trifluoroacetate salt). As for the experimental part:
LRRK2 kinase activity was measured using Lantha Screen technology from Invitrogen. GST-tagged truncated LRRK2 from Invitrogen (Cat # PV4874) was incubated with a fluorescein-labeled peptide substrate based upon ezrin/radixin/moesin (ERM), also known as LRRKtide (Invitrogen cat # PR8976A), in the presence of a dose response of compound. Upon completion, the assay was stopped and detected with a terbium labeled anti-phospho-ERM antibody (Invitrogen, cat # PR8975A). […] Aliquots (3.5 μL) of the 100% DMSO dose response were mixed with 46.5 μL water then 1 μL of this mixture was added to the 3 μL substrate mix in the 384-well plate. The kinase reaction was started with 3 μL of a working solution of LRRK2 enzyme at a concentration of 4 μg/mL. […] The reaction was allowed to progress at room temperature for two hours and then stopped with the addition of 7 μL of detection buffer (20 mM Tris pH 7.6, 0.01% NP-40, 0.02% NaN3, 6 mM EDTA with 2 nM terbium labeled anti-phospho-ERM).

Experiment [2] addresses mutant G2019S LRRK2 (Homo sapiens, UniProt Q5S007, G2019S). As to the kind of experiment: LRRK2 Assay, Format 1 (Lantha Screen), G2019S mutant.
Excerpt: All final concentrations of substrate ATP and enzyme were the same.

Where a name gives a salt, the structure may show the parent alone.

The text below walks through data of patent publication US10039753B2, “Imidazo[4,5-c]quinoline and imidazo[4,5-c][1,5]naphthyridine derivatives as LRRK2 inhibitors” (Pfizer Inc., priority 2015, dated 2018).

Usually IC50 stands for the point on the concentration scale where inhibition reaches its midpoint.

mutant G2019S LRRK2, sequence (Q5S007 970-2527 G2019S limits assumed): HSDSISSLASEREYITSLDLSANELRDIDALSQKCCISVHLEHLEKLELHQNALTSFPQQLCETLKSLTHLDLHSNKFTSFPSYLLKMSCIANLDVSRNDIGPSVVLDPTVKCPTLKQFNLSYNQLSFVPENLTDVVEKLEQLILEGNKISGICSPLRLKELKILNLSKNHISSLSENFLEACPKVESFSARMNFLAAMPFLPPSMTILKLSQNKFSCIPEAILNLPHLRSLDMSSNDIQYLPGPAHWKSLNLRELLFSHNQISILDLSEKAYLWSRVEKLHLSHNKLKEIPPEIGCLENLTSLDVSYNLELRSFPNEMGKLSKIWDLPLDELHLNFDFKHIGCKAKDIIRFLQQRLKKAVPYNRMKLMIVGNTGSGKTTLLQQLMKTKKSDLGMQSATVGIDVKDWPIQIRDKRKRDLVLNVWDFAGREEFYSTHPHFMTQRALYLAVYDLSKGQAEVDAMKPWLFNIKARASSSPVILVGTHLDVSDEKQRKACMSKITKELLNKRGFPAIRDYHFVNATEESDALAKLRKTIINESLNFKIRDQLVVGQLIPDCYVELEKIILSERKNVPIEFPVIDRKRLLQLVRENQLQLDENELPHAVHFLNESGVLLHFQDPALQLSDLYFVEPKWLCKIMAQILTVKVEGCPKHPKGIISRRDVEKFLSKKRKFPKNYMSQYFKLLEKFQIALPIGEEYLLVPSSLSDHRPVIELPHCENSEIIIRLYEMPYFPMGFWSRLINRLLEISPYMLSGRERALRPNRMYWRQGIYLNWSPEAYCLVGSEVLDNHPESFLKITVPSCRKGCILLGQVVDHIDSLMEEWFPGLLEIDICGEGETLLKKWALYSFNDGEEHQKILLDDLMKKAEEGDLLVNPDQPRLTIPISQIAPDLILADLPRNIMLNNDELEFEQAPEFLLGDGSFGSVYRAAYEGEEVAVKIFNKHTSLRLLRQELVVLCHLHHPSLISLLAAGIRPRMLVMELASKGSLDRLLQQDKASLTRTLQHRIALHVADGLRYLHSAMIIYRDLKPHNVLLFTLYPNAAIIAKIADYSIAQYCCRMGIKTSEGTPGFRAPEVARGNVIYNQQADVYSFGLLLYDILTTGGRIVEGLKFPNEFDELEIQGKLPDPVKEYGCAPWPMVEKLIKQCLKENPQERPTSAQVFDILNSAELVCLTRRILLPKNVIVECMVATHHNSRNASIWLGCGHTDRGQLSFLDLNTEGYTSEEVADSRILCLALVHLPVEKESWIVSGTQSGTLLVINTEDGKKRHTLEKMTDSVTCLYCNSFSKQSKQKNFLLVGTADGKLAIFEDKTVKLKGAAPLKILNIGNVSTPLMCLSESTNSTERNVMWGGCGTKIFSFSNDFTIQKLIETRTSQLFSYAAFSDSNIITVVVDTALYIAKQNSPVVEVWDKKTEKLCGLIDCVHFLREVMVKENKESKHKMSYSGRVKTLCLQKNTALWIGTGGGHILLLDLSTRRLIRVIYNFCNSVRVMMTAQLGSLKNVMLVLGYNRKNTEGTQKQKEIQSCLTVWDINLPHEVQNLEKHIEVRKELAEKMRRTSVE
T1 sequence (Q5S007 970-2527 limits assumed): as the sequence (Q5S007 970-2527 G2019S limits assumed) above, with S1050G counted along it

With `c1ccc2c(c1)ncc1nc(Cc3cscn3)n(C3CCOCC3)c12` [Example 36, 1-(tetrahydro-2H-pyran-4-yl)-2-(1,3-thiazol-4-ylmethyl)-1H-imidazo[4,5-c]quinoline, formate salt], the half-inhibitory concentration (IC50) in experiment [1] is 85.5 nM; in experiment [2], 90.5 nM.
Taken in the same sequence, the figures for `COc1ccc(Cc2nc3cnc4ccccc4c3n2C2CCOCC2)nc1` [Example 37, 2-[(5-methoxypyridin-2-yl)methyl]-1-(tetrahydro-2H-pyran-4-yl)-1H-imidazo[4,5-c]quinoline] were 133 nM and 143 nM.
The like results for `Cc1nn2cc(Cc3nc4cnc5ccccc5c4n3C3CCOCC3)nc2s1` [Example 38, 2-[(2-methylimidazo[2,1-b][1,3,4]thiadiazol-6-yl)methyl]-1-(tetrahydro-2H-pyran-4-yl)-1H-imidazo[4,5-c]quinoline] were, in that order, 36 nM and 41.6 nM.
The like results for `Cc1cc(Cc2nc3cnc4ccccc4c3n2C2CCOCC2)no1` [Example 39, 2-[(5-methyl-1,2-oxazol-3-yl)methyl]-1-(tetrahydro-2H-pyran-4-yl)-1H-imidazo[4,5-c]quinoline] were, in that order, 103 nM and 157 nM.
Turning to `CC(C)(O)c1cn(Cc2nc3cnc4ccccc4c3n2C2CCOCC2)nn1` [Example 40, 2-(1-{[1-(tetrahydro-2H-pyran-4-yl)-1H-imidazo[4,5-c]quinolin-2-yl]methyl}-1H-1,2,3-triazol-4-yl)propan-2-ol], the values for the IC50 in experiment [1] and in experiment [2] were 141 nM and 120 nM, respectively.
As to `c1ccc2c(c1)ncc1nc(Cn3nnc4ccccc43)n(C3CCOCC3)c12` [Example 41, 2-(1H-benzotriazol-1-ylmethyl)-1-(tetrahydro-2H-pyran-4-yl)-1H-imidazo[4,5-c]quinoline], the IC50 was determined as 124 nM in experiment [1] and 93.5 nM in experiment [2].
Taken in the same sequence, the figures for `c1ccc2c(c1)ncc1nc(Cn3cc(C4CC4)nn3)n(C3CCOCC3)c12` [Example 42, 2-[(4-cyclopropyl-1H-1,2,3-triazol-1-yl)methyl]-1-(tetrahydro-2H-pyran-4-yl)-1H-imidazo[4,5-c]quinoline] were 51.2 nM and 55.9 nM.
Taken in the same sequence, the figures for `FC(F)(F)c1cnn(Cc2nc3cnc4ccccc4c3n2C2CCOCC2)c1` [Example 43, 1-(tetrahydro-2H-pyran-4-yl)-2-{[4-(trifluoromethyl)-1H-pyrazol-1-yl]methyl}-1H-imidazo[4,5-c]quinoline] were 119 nM and 110 nM.
Taken in the same sequence, the figures for `CC(C)c1cn(Cc2nc3cnc4ccccc4c3n2C2CCOCC2)nn1` [Example 44, 2-{[4-(propan-2-yl)-1H-1,2,3-triazol-1-yl]methyl}-1-(tetrahydro-2H-pyran-4-yl)-1H-imidazo[4,5-c]quinoline] were 62.5 nM and 72.2 nM.
Regarding `c1ccc2nn(Cc3nc4cnc5ccccc5c4n3C3CCOCC3)cc2c1` [Example 45, 2-(2H-indazol-2-ylmethyl)-1-(tetrahydro-2H-pyran-4-yl)-1H-imidazo[4,5-c]quinoline], the IC50 in experiment [1] is 61.1 nM; in experiment [2], 52.9 nM.
As for `FC1(F)CCCCC1n1c(Cc2ccon2)nc2cnc3ccccc3c21` (stereo not drawn) [Example 46, 1-(2,2-difluorocyclohexyl)-2-(1,2-oxazol-3-ylmethyl)-1H-imidazo[4,5-c]quinoline], the IC50 in experiment [1] was determined as 186 nM; in experiment [2], 90.8 nM.
The like results for `CC1(C)CC(n2c(Cc3ccon3)nc3cnc4ccccc4c32)CCO1` (stereo not drawn) [Example 47, 1-(2,2-dimethyltetrahydro-2H-pyran-4-yl)-2-(1,2-oxazol-3-ylmethyl)-1H-imidazo[4,5-c]quinoline] were, in that order, 103 nM and 80.6 nM.
With `FC1(F)CCC(n2c(Cc3ccon3)nc3cnc4ccccc4c32)CC1` [Example 48, 1-(4,4-difluorocyclohexyl)-2-(1,2-oxazol-3-ylmethyl)-1H-imidazo[4,5-c]quinoline], the IC50 turned out to be 194 nM in experiment [1] and 118 nM in experiment [2].
Taken in the same sequence, the figures for `c1ccc2c(c1)ncc1nc(Cc3ccon3)n(C3CCCCC3)c12` [Example 50, 1-cyclohexyl-2-(1,2-oxazol-3-ylmethyl)-1H-imidazo[4,5-c]quinoline] were 127 nM and 57.7 nM.
`Cc1nc(Cc2nc3cnc4ccc(Cl)cc4c3n2[C@H]2CCO[C@@H](C)C2)no1` [Example 51, 8-chloro-2-[(5-methyl-1,2,4-oxadiazol-3-yl)methyl]-1-[(2S,4S)-2-methyltetrahydro-2H-pyran-4-yl]-1H-imidazo[4,5-c]quinoline]: the IC50 in experiment [1] was 109 nM; in experiment [2], 49.3 nM. Further, the “LRRK2 potency compared to Example 5 (its enantiomer)” value in experiment [1] (qualitative statement referring to Table 3 data) is recorded as “significantly less potent”.
Turning to `C[C@@H]1C[C@H](n2c(Cc3ccon3)nc3cnc4ccc(Cl)cc4c32)CCO1` [Example 52, 8-chloro-1-[(2R,4R)-2-methyltetrahydro-2H-pyran-4-yl]-2-(1,2-oxazol-3-ylmethyl)-1H-imidazo[4,5-c]quinoline], the concentration for half-maximal inhibition (IC50) was found to be 4.1 nM in experiment [1] and 2.7 nM in experiment [2].
The like results for `C[C@@H]1C[C@H](n2c(Cc3cscn3)nc3cnc4ccc(Cl)cc4c32)CCO1` [Example 53, 8-chloro-1-[(2R,4R)-2-methyltetrahydro-2H-pyran-4-yl]-2-(1,3-thiazol-4-ylmethyl)-1H-imidazo[4,5-c]quinoline] were, in that order, 3.1 nM and 1.9 nM.
The like results for `C[C@@H]1C[C@H](n2c(Cc3ccon3)nc3cnc4ccc(F)cc4c32)CCO1` [Example 54, 8-fluoro-1-[(2R,4R)-2-methyltetrahydro-2H-pyran-4-yl]-2-(1,2-oxazol-3-ylmethyl)-1H-imidazo[4,5-c]quinoline] were, in that order, 8.8 nM and 8 nM.
Taken in the same sequence, the figures for `C[C@@H]1C[C@H](n2c(Cc3cscn3)nc3cnc4ccc(C#N)cc4c32)CCO1` [Example 57, 1-[(2R,4R)-2-methyltetrahydro-2H-pyran-4-yl]-2-(1,3-thiazol-4-ylmethyl)-1H-imidazo[4,5-c]quinoline-8-carbonitrile] were 6.1 nM and 4 nM.
Regarding `C[C@@H]1C[C@H](n2c(Cc3ccon3)nc3cnc4ccc(Br)cc4c32)C[C@H](C)O1` [Example 59, 8-bromo-1-[(2R,4r,6S)-2,6-dimethyltetrahydro-2H-pyran-4-yl]-2-(1,2-oxazol-3-ylmethyl)-1H-imidazo[4,5-c]quinoline], the figures for the IC50 in experiment [1] and in experiment [2] were 176 nM and 52 nM, respectively.
On to `C[C@@H]1C[C@H](n2c(Cc3cscn3)nc3cnc4ccc(Br)cc4c32)C[C@H](C)O1` [Example 60], for which the IC50 is 35.1 nM in experiment [1] and 11.5 nM in experiment [2].
The like results for `C[C@@H]1C[C@H](n2c(Cc3cscn3)nc3cnc4ccc(C#N)cc4c32)C[C@H](C)O1` [Example 61, 1-[(2R,4r,6S)-2,6-dimethyltetrahydro-2H-pyran-4-yl]-2-(1,3-thiazol-4-ylmethyl)-1H-imidazo[4,5-c]quinoline-8-carbonitrile] were, in that order, 181 nM and 67.9 nM.
The like results for `COc1ccc2ncc3nc(Cc4ccon4)n([C@@H]4CCO[C@H](C)C4)c3c2c1` [Example 62, 8-methoxy-1-[(2R,4R)-2-methyltetrahydro-2H-pyran-4-yl]-2-(1,2-oxazol-3-ylmethyl)-1H-imidazo[4,5-c]quinoline] were, in that order, 41.9 nM and 12.8 nM.
The like results for `Clc1ccc2ncc3nc(Cc4ccon4)n(C4CCOCC4)c3c2c1` [Example 63, 8-chloro-2-(1,2-oxazol-3-ylmethyl)-1-(tetrahydro-2H-pyran-4-yl)-1H-imidazo[4,5-c]quinoline, formate salt] were, in that order, 16.1 nM and 12.1 nM.
Take `CC[C@@H]1C[C@H](n2c(Cc3ccon3)nc3cnc4ccc(C#N)cc4c32)CCO1` [Example 67, 1-[(2R,4R)-2-ethyltetrahydro-2H-pyran-4-yl]-2-(1,2-oxazol-3-ylmethyl)-1H-imidazo[4,5-c]quinoline-8-carbonitrile]: the IC50 in experiment [1] turned out to be 5.8 nM; in experiment [2] it was 4 nM.
The like results for `C[C@@H]1C[C@H](n2c(Cc3ccon3)nc3cnc4cccnc4c32)CCO1` [Example 68, 1-[(2R,4R)-2-methyltetrahydro-2H-pyran-4-yl]-2-(1,2-oxazol-3-ylmethyl)-1H-imidazo[4,5-c][1,5]naphthyridine] were, in that order, 23.6 nM and 19.2 nM.
Taken in the same sequence, the figures for `c1ccc2c(c1)ncc1nc(Cc3cn4ncsc4n3)n(C3CCOCC3)c12` [Example 69, 2-(imidazo[2,1-b][1,3,4]thiadiazol-6-ylmethyl)-1-(tetrahydro-2H-pyran-4-yl)-1H-imidazo[4,5-c]quinoline] were 78.2 nM and 82.4 nM.
Taken in the same sequence, the figures for `COc1ccc(Cc2nc3cnc4ccc(F)cc4c3n2C2CCOC(C)(C)C2)nc1` (stereo not drawn) [Example 70, 1-(2,2-dimethyltetrahydro-2H-pyran-4-yl)-8-fluoro-2-[(5-methoxypyridin-2-yl)methyl]-1H-imidazo[4,5-c]quinoline] were 77.7 nM and 66.5 nM.
